What all share (assay): Large panel kinase profiling
Common to all, as to format: biochemical
Common to all, as to conditions: 1 μM test article, 1 mM ATP

One assay concerns the target T1, CLK3 (Homo sapiens, UniProt P49761).
T1 construct: AssayQuant Technologies, Inc. (service laboratory)
An outline of the steps:
(§1)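 Reactions contain 1 mM ATP and 1 μM test article; the CSox peptide sensor reports phosphorylation as fluorescence gain. Temperature is held at 30° C. while signal (360 nm excitation, 485 nm emission) is recorded every 1 min.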

Another assay addresses T2, EPHB2 (Homo sapiens, UniProt P29323).
T2 sequence (P29323 19-1055): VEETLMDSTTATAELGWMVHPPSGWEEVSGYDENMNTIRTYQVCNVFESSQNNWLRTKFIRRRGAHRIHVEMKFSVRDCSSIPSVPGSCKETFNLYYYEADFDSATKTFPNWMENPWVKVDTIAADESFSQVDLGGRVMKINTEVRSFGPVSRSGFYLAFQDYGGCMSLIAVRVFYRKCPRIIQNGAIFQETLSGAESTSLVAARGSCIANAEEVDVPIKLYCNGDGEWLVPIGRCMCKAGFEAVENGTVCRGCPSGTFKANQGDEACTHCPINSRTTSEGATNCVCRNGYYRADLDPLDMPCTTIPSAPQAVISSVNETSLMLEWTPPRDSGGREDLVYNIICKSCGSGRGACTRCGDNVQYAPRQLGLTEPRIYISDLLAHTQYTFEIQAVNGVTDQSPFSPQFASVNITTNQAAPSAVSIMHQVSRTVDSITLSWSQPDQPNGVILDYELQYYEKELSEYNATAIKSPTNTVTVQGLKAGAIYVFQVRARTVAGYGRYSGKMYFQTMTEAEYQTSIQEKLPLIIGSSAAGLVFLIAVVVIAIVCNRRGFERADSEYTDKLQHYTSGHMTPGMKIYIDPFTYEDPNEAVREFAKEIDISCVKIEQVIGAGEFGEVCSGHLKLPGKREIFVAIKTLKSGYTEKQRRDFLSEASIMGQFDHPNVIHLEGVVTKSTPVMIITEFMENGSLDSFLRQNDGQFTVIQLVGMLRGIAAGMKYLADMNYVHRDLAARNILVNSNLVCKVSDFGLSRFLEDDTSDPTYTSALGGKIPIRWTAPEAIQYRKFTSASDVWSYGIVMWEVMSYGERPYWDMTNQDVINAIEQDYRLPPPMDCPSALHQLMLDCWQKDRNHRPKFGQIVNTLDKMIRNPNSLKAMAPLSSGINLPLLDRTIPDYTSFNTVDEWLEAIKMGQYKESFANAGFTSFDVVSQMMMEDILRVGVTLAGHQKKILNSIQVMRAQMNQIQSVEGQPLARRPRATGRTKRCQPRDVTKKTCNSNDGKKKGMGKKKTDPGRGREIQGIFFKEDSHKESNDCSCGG
In outline: as §1

The target of the next assay is T3, MAP3K9 (Homo sapiens, UniProt P80192).
T3 construct: AssayQuant Technologies, Inc. (service provider)
T3 sequence (P80192 whole entry, species assumed): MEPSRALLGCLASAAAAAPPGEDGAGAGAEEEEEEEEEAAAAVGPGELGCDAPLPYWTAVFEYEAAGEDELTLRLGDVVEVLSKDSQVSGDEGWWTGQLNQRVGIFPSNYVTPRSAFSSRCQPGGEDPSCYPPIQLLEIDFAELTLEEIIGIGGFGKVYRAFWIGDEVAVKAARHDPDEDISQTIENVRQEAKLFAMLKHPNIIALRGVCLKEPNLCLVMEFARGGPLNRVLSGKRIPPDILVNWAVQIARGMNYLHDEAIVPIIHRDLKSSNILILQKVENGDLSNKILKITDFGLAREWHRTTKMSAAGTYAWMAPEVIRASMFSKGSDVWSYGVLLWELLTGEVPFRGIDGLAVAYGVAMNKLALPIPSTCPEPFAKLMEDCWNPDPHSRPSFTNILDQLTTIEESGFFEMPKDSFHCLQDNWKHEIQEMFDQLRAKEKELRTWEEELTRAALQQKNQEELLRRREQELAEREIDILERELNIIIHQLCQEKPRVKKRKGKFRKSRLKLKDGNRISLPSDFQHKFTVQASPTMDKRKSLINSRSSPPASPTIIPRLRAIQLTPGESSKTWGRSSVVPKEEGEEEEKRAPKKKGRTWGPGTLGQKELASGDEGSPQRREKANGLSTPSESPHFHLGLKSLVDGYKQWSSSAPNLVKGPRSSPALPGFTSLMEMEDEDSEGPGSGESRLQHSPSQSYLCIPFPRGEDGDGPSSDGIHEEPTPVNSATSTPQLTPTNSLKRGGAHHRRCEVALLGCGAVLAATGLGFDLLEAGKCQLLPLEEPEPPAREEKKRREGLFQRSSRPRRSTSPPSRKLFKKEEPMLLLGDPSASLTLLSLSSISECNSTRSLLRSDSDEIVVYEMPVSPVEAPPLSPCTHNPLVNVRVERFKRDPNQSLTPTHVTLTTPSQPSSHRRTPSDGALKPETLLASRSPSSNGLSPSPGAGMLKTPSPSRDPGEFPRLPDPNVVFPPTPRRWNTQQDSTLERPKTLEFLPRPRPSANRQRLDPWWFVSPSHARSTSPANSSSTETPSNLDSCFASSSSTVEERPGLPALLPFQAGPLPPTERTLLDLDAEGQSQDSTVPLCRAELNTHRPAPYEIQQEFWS
In outline: as §1

The target of another assay is T4, MAPK14/P38A (Homo sapiens, UniProt Q16539).
T4 construct: AssayQuant Technologies, Inc. (service provider)
T4 sequence (Q16539 2-360 limits assumed): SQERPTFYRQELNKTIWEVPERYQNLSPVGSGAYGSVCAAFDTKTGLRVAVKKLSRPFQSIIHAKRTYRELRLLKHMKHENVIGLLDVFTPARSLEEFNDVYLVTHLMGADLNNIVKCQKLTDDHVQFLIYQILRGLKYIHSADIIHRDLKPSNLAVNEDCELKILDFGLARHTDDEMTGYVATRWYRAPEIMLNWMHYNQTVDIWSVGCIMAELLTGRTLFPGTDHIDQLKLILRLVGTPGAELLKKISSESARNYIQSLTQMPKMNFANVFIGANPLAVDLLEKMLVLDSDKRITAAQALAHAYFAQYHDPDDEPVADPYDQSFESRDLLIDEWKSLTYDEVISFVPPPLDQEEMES
An outline of the steps: as §1

In the next assay the target is T5, MYO3B (Homo sapiens, UniProt Q8WXR4).
T5 construct: AssayQuant Technologies, Inc. (assay service)
T5 sequence (Q8WXR4 1-1341): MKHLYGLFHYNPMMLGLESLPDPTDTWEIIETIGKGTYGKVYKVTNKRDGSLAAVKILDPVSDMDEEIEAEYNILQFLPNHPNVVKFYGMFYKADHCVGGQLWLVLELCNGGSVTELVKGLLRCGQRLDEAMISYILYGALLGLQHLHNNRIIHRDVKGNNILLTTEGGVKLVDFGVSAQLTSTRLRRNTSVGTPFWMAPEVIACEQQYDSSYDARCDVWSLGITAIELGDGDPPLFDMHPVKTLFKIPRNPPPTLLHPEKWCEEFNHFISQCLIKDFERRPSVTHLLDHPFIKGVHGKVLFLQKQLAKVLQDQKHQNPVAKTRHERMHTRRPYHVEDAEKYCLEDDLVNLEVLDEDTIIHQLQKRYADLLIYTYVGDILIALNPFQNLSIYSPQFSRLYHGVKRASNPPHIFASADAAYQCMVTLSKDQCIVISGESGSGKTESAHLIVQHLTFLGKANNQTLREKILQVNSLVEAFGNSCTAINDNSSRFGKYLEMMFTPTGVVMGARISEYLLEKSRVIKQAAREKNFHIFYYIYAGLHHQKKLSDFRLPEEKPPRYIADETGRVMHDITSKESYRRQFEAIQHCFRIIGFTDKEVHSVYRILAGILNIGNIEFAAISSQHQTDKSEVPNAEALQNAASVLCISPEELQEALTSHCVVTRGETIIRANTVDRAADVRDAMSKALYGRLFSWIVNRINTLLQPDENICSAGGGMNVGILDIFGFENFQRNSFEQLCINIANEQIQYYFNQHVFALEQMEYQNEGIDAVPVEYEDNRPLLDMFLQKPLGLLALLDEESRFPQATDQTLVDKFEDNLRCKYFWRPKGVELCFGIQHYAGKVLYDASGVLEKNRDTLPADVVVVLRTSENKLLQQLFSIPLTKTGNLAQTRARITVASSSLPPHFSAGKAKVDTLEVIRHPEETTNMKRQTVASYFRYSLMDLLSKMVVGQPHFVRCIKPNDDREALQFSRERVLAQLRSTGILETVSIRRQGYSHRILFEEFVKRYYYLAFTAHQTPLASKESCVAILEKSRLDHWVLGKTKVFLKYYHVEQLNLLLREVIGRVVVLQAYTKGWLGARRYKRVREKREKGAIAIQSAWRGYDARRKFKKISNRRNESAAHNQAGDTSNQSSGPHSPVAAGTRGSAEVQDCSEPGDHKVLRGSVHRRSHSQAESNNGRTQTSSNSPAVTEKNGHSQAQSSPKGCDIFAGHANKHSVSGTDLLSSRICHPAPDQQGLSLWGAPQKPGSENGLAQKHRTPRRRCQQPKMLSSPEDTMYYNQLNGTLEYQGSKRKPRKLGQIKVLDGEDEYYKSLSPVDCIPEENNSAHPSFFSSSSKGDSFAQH
An outline of the steps:
as §1

Our source for the inhibition values is patent US20220009920A1 (GB005, Inc., priority 2020, published 2022).

Structures are written as SMILES.

T1 sequence (P49761 whole entry, species assumed): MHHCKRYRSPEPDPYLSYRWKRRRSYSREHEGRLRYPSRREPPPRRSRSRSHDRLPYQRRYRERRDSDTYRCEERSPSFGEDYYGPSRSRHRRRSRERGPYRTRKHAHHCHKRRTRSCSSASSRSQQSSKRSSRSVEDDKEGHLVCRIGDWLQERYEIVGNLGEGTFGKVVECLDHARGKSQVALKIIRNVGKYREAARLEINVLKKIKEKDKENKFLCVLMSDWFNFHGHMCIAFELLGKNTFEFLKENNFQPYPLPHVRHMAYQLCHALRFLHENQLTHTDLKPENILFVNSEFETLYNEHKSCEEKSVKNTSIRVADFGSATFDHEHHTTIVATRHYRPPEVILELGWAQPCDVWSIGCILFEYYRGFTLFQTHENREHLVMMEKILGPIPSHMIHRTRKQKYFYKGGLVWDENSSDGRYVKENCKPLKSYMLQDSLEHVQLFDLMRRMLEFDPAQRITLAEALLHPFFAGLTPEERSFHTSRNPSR

Regarding `C=CC(=O)N1CCC[C@@H](c2c(F)cc(C(N)=O)c3[nH]c4c(c23)CCC4)C1` [Compound 10-2, (S)-8-(1-acryloylpiperidin-3-yl)-7-fluoro-1,2,3,4-tetrahydrocyclo-penta[b]indole-5-carboxamide], the inhibition at 1 µM against CLK3 was -19.2%; on EPHB2, 0.9%; at MAP3K9, 12.3%; against MAPK14/P38A, 5%; at MYO3B, -11%.
The like results for `C=CC(=O)N1CCCC(c2c(F)cc(C(N)=O)c3[nH]c4c(c23)CCCCC4)C1` (single isomer, unassigned) [Compound 5-6] were, in that order, -29.3%, 21.3%, -0.9%, -8.3% and -36.2%.
`C=CC(=O)N1CCC[C@@H](c2c(F)cc(C(N)=O)c3[nH]c4c(c23)CC2(CC4)CC2)C1` [Compound 6-2, (S)-5-(1-acryloylpiperidin-3-yl)-6-fluoro-1,2,4,9-tetrahydrospiro[carbazole-3,1′-cyclopropane]-8-carboxamide]: the inhibition at 1 µM on CLK3 is -0.1%; against EPHB2, 11.8%; against MAP3K9 it was 28.8%; against MAPK14/P38A it was 28.2%; against MYO3B, -16.5%.

For orientation: inhibition means the drop in the measured response relative to a control, in per cent.
